Measurements as given in publication PMC11494293, “Biochemical and structural insights into a 5’ to 3’ RNA ligase reveal a potential role in tRNA ligation” (Proceedings of the National Academy of Sciences of the …, 2024).

Target: T1, YspRLIG1 (Yasminevirus RLIG1) (Yasminevirus sp. GU-2018, UniProt A0A5K0UB63)
T1 construct: gene YASMINEVIRUS_1364; minimal RNA ligase (NTase) fold; active-site Lys73
T1 sequence (A0A5K0UB63 1-276): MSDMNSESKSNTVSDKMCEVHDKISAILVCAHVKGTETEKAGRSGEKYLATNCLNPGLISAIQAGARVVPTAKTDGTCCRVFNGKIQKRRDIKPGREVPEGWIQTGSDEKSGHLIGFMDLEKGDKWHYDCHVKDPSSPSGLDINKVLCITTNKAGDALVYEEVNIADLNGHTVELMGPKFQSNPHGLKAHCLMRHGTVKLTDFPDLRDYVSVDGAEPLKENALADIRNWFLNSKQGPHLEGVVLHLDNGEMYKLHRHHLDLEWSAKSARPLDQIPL
Experiment: X-ray crystal structure
Assay type: binding
Settings: crystallised in the presence of ATP, active site, either AMP or ADP modelled

Compound | X-ray crystal structure | X-ray crystal structure (WT protein adenylated)
Nc1ncnc2c1ncn2[C@@H]1O[C@H](COP(=O)(O)OP(=O)(O)O)[C@@H](O)[C@H]1O [ADP] | In the ADP-bound YspRLIG1^WT structure, the O5-Pα bond is rotated | –
Nc1ncnc2c1ncn2[C@@H]1O[C@H](COP(=O)(O)O)[C@@H](O)[C@H]1O [AMP] | – | In the WT structure, either AMP or ADP was modeled in the active site
